In US12297186B2, “Benzylamide derivatives as inhibitors of transforming growth factor-beta receptor I/ALK5” (AGOMAB SPAIN, S.L.U., priority 2019, dated 2025):
Structures can show the parent of a compound that is named as a salt. Where two headings read alike, the source gives them in different places.

Experiments:
Human TGFβR-1 kinase = Human TGFβR-1 kinase (Homo sapiens (Human), UniProt P36897); assay: In vitro enzyme assay: inhibition of TGFβR-1 kinase activity (ADP-Glo); format: biochemical
Procedure: In Vitro Enzyme Assay: Inhibition of TGFβR-1Kinase Activity
Human TGFβl R-1 inhibition experiments were carried out in a white 384-microplate low flange (Corning 3572) with ADP-Glo kinase Assay Kit (Promega V9101) and TGβR-1 Kinase Enzyme System (Promega V4092). […] The reaction mixture was incubated in gentle shaking for 120 min at RT, after incubation of 10 μL of ADP-Glo Reagent was added and incubated in gentle shaking for 40 min at RT. 20 μL of Kinase Detection Reagent was added and plate was incubated in gentle shaking for 30 min at RT. Luminiscence (1000 ms) was measured in Perkin Elmer EnSpire Multimode plate reader.

[1] = Identification study of metabolite; format: in vitro ADME
From the text: In an identification study of metabolite was identified Compound A. Said compound is 2-(3-(6-methylpyridin-2-yl)-4-(quinolin-4-yl)-1H-pyrazol-1-yl)acetic acid and has the following formula: […]
Compound A was identified as the major metabolite of examples 9, 15, 20, 22, 24 and 26, among others.

TGF-beta kinase (ALK-5) = TGF-beta kinase (ALK-5) (Homo sapiens (Human), UniProt P36897); assay: Determination of the intracellular TGF-beta kinase activity (ALK-5), p-SMAD3 AlphaLISA in A549 cells; format: cell-based; details: A549 cell line
Chain of TGF-beta kinase (ALK-5) (P36897 34-503): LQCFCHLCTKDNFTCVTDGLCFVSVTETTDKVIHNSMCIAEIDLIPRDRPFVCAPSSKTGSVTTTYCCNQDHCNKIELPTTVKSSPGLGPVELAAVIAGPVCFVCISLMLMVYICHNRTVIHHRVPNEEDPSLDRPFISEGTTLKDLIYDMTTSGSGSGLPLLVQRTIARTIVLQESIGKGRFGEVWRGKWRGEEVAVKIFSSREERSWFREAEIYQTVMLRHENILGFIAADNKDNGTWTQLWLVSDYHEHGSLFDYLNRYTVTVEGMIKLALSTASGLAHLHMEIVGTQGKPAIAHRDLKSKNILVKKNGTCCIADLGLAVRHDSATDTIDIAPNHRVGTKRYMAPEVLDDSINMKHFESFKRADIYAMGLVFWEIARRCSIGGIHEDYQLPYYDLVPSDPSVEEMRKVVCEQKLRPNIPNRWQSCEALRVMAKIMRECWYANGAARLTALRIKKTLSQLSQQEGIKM
Procedure: Determination of the Intracellular TGF-beta Kinase Activity (ALK-5)
The experiments were carried out in A549 cell line. 30000 cells were seeded in 200 μl of culture medium (Sigma D6046) supplemented with L-Glutamine (Sigma G7513), Penicillin/Streptomycin (Invitrogen 11058) and FBS (Sigma F9665) on a 96 wells microplate (Becton Dickinson 353072). After 16 hours medium waschanged to serum free medium.

[2] = Plasma pharmacokinetic assay, single oral administration; format: in vivo, male Sprague Dawley rats; details: male, Sprague-Dawley, po; rat, P.O., 5 mg/kg, plasma
Procedure: Plasma Pharmacokinetic Assay
The objective of this study was to investigate the plasma pharmacokinetics of some compounds of the present invention in male Sprague Dawley rats following a single oral administration. Three rats per compound were used in this study. Animals were administered with suspension formulation of each compound in 0.5% Tween-80 and 99.5% NaCMC (0.5% w/v in RO Water) by oral route at 5 mg/kg. The blood samples were collected from set of three rats at each time point in labelled micro centrifuge tube containing K2EDTA solution as anticoagulant at 0.25, 0.5, 1, 2, 4, 6, 8, 12 and 24 hr (p.o.). Plasma samples were separated by centrifugation of whole blood and stored below −70±10° C. until bioanalysis. All samples were processed for analysis by protein precipitation using acetonitrile and analysed with fit-for-purpose LC-MS/MS method (LLOQ=1.01 ng/mL). Pharmacokinetic parameters were calculated using the non-compartmental analysis tool of Phoenix WinNonlin® (Version 7.0).

[3] = Metabolic stability assay, rat microsomes; format: in vitro ADME; details: for microsomal CLint: rat recombinant microsomes (Tebu-Xenotech), pH 7.4
Procedure: (§1) Metabolic Stability Assay
(§2) Human and rat recombinant microsomes from Tebu-Xenotech were employed in the assay. They content 0.5 mg/ml of protein. The following quantities were added to each well of a 96-well microplate.
(§3) Plates were incubated at 37° C. and 75 μL samples were taken at 0, 10, 20, 40 and 60 minutes. Samples were transferred to a microplate and 75 μl Acetonitrile were added for inactivating the microsomes, and 30 μl of H2O for improving the chromatographic conditions and kept at 4° C. When all the samples were taken the plate was centrifuged at […] for 30 min at 15° C. Supernatant was taken and injected in the UPLC-MS/MS.
(§4) Stationary phase: Reverse phase Acquity UPLC® BEH C18 1.7 μm (2.1 mm×50 mm) (Waters). Mobile phase: A: 0.1% formic; B:acetonitrile+0.1% formic acid. Flow: 0.6 ml/min. The chromatographic equipment employed was an UPLC QSM Waters Acquity. Compound concentrations were calculated from the UV peak areas. The response was linear in the range between 10 ng/ml and 0.3125 ng/ml. Metabolic stability was calculated from the logarithm of the remaining compound at each of the times evaluated.
(§5) The data will be fitted to the one phase exponential decay equation using GraphPad Prism® software. The half-life (t1/2) generated by the software will be reported. Intrinsic clearance will be calculated using the formula where, k=decay rate constant (min^−1).

[4] = Metabolic stability assay, human microsomes; format: in vitro ADME; details: for microsomal CLint: human recombinant microsomes (Tebu-Xenotech)
Procedure: as §1, §2, §3, §4, §5

[5] = TGFβR-1 kinase, 50 μM ATP, read-out: IC50 range
[6] = TGF-β2 activated, p-SMAD3, read-out: IC50 range

Chain of Human TGFβR-1 kinase (P36897 34-503): as above

SMILES: Cc1cccc(C)c1CNC(=O)Cn1cc(-c2ccnc3ccccc23)c(-c2ccccn2)n1 [Example 25, N-(2,6-dimethylbenzyl)-2-(3-(pyridin-2-yl)-4-(quinolin-4-yl)-1H-pyrazol-1-yl)acetamide]
- IC50 (Human TGFβR-1 kinase; [5]): < 0.1 µM

SMILES: Cc1ccccc1CNC(=O)Cn1cc(-c2ccnc3ccccc23)c(-c2ccccn2)n1 [Example 14, N-(2-methylbenzyl)-2-(3-(pyridin-2-yl)-4-(quinolin-4-yl)-1H-pyrazol-1-yl)acetamide]
- IC50 (Human TGFβR-1 kinase; [5]): 0.1 to 0.8 µM

SMILES: O=C(Cn1cc(-c2ccnc3ccccc23)c(-c2ccccn2)n1)NCc1cccc(F)c1 [Example 11, N-(3-fluorobenzyl)-2-(3-(pyridin-2-yl)-4-(quinolin-4-yl)-1H-pyrazol-1-yl)acetamide]
- IC50 (Human TGFβR-1 kinase; [5]): 0.1 to 0.8 µM

SMILES: Cc1ccc(CNC(=O)Cn2cc(-c3ccnc4ccccc34)c(-c3ccccn3)n2)cc1 [Example 7, N-(4-methylbenzyl)-2-(3-(pyridin-2-yl)-4-(quinolin-4-yl)-1H-pyrazol-1-yl)acetamide]
- IC50 (Human TGFβR-1 kinase; [5]): 0.1 to 0.8 µM

SMILES: O=C(Cn1cc(-c2ccnc3ccccc23)c(-c2ccccn2)n1)NCc1c(F)cccc1F [Example 23, N-(2,6-difluorobenzyl)-2-(3-(pyridin-2-yl)-4-(quinolin-4-yl)-1H-pyrazol-1-yl)acetamide]
- IC50 (Human TGFβR-1 kinase; [5]): 0.1 to 0.8 µM

SMILES: Cc1cccc(CNC(=O)Cn2cc(-c3ccnc4ccccc34)c(-c3ccccn3)n2)c1 [Example 10, N-(3-methylbenzyl)-2-(3-(pyridin-2-yl)-4-(quinolin-4-yl)-1H-pyrazol-1-yl)acetamide]
- IC50 (Human TGFβR-1 kinase; [5]): 0.1 to 0.8 µM

SMILES: O=C(Cn1cc(-c2ccnc3ccccc23)c(-c2ccccn2)n1)NCc1ccc(C(=O)O)cc1 [Example 29, 4-((2-(3-(pyridin-2-yl)-4-(quinolin-4-yl)-1H-pyrazol-1-yl)acetamido)methyl)benzoic acid hydrochloride]
- IC50 (Human TGFβR-1 kinase; [5]): 0.1 to 0.8 µM

SMILES: Cc1cccc(-c2nn(CC(=O)NCc3ccccc3C)cc2-c2ccnc3ccccc23)n1 [Example 15, N-(2-methylbenzyl)-2-(3-(6-methylpyridin-2-yl)-4-(quinolin-4-yl)-1H-pyrazol-1-yl)acetamide]
- IC50 (Human TGFβR-1 kinase; [5]): < 0.1 µM
- Major metabolite identified [1]: Compound A
- IC50 (TGF-beta kinase (ALK-5); [6]): 0.1 to 0.5 µM
- AUC(0-inf) [2]: 0.0394 µg·h/mL
- AUC(0-t) [2]: 0.0351 µg·h/mL
- Cmax [2]: 0.0758 µg/mL
- Tmax [2]: 15 min

SMILES: O=C(Cn1cc(-c2ccnc3ccccc23)c(-c2ccccn2)n1)NCc1ccc(Cl)cc1 [Example 3, N-(4-chlorobenzyl)-2-(3-(pyridin-2-yl)-4-(quinolin-4-yl)-1H-pyrazol-1-yl)acetamide]
- IC50 (Human TGFβR-1 kinase; [5]): 0.1 to 0.8 µM

SMILES: Cc1cccc(-c2nn(CC(=O)NCc3c(C)cccc3C)cc2-c2ccnc3ccccc23)n1 [Example 26, N-(2,6-dimethylbenzyl)-2-(3-(6-methylpyridin-2-yl)-4-(quinolin-4-yl)-1H-pyrazol-1-yl)acetamide]
- IC50 (Human TGFβR-1 kinase; [5]): < 0.1 µM
- Major metabolite identified [1]: Compound A
- % remanent (sampling time 60 min) [3]: 0.08%
- microsomal CLint [3]: 826 µL/min/mg
- IC50 (TGF-beta kinase (ALK-5); [6]): 0.1 to 0.5 µM
- % remanent (sampling time 60 min) [4]: 0.05%
- microsomal CLint [4]: 622 µL/min/mg

SMILES: O=C(Cn1cc(-c2ccnc3ccccc23)c(-c2ccccn2)n1)NCc1ccccc1 [Example 1, N-benzyl-2-(3-(pyridin-2-yl)-4-(quinolin-4-yl)-1H-pyrazol-1-yl)acetamide]
- IC50 (Human TGFβR-1 kinase; [5]): < 0.1 µM
- IC50 (TGF-beta kinase (ALK-5); [6]): 0.1 to 0.5 µM

SMILES: O=C(Cn1cc(-c2ccnc3ccccc23)c(-c2ccccn2)n1)NCc1ccccc1Cl [Example 21, N-(2-chlorobenzyl)-2-(3-(pyridin-2-yl)-4-(quinolin-4-yl)-1H-pyrazol-1-yl)acetamide]
- IC50 (Human TGFβR-1 kinase; [5]): 0.1 to 0.8 µM

SMILES: N#Cc1cccc(CNC(=O)Cn2cc(-c3ccnc4ccccc34)c(-c3ccccn3)n2)c1 [Example 13, N-(3-cyanobenzyl)-2-(3-(pyridin-2-yl)-4-(quinolin-4-yl)-1H-pyrazol-1-yl)acetamide]
- IC50 (Human TGFβR-1 kinase; [5]): 0.1 to 0.8 µM

SMILES: O=C(Cn1cc(-c2ccnc3ccccc23)c(-c2ccccn2)n1)NCc1ccc(F)cc1 [Example 2, N-(4-fluorobenzyl)-2-(3-(pyridin-2-yl)-4-(quinolin-4-yl)-1H-pyrazol-1-yl)acetamide]
- IC50 (Human TGFβR-1 kinase; [5]): 0.1 to 0.8 µM

SMILES: Cc1cccc(-c2nn(CC(=O)NCc3ccccc3F)cc2-c2ccnc3ccccc23)n1 [Example 17, N-(2-fluorobenzyl)-2-(3-(6-methylpyridin-2-yl)-4-(quinolin-4-yl)-1H-pyrazol-1-yl)acetamide]
- IC50 (Human TGFβR-1 kinase; [5]): 0.1 to 0.8 µM

SMILES: Cc1cccc(-c2nn(CC(=O)NCc3ccccc3)cc2-c2ccnc3ccccc23)n1 [Example 9, N-benzyl-2-(3-(6-methylpyridin-2-yl)-4-(quinolin-4-yl)-1H-pyrazol-1-yl)acetamide]
- IC50 (Human TGFβR-1 kinase; [5]): < 0.1 µM
- Major metabolite identified [1]: Compound A
- IC50 (TGF-beta kinase (ALK-5); [6]): < 0.1 µM
- AUC(0-inf) [2]: 0.0277 µg·h/mL
- AUC(0-t) [2]: 0.027 µg·h/mL
- Cmax [2]: 0.0628 µg/mL
- Tmax [2]: 15 min

SMILES: O=C(Cn1cc(-c2ccnc3ccccc23)c(-c2ccccn2)n1)NCc1ccccc1F [Example 16, N-(2-fluorobenzyl)-2-(3-(pyridin-2-yl)-4-(quinolin-4-yl)-1H-pyrazol-1-yl)acetamide]
- IC50 (Human TGFβR-1 kinase; [5]): 0.1 to 0.8 µM

SMILES: Cc1cccc(-c2nn(CC(=O)NCc3c(Cl)cccc3Cl)cc2-c2ccnc3ccccc23)n1 [Example 28, N-(2,6-dichlorobenzyI)-2-(3-(6-methylpyridin-2-yl)-4-(quinolin-4-yl)-1H-pyrazol-1-yl)acetamide]
- IC50 (Human TGFβR-1 kinase; [5]): < 0.1 µM
- IC50 (TGF-beta kinase (ALK-5); [6]): 0.1 to 0.5 µM

SMILES: Cc1cccc(-c2nn(CC(=O)O)cc2-c2ccnc3ccccc23)n1 [Compound A, 2-(3-(6-methylpyridin-2-yl)-4-(quinolin-4-yl)-1H-pyrazol-1-yl)acetic acid]
- IC50 (Human TGFβR-1 kinase; enzyme assay, read-out: IC50 against TGFβR-1): > 0.8 µM
- IC50 (TGF-beta kinase (ALK-5); read-out: IC50 intracellular TGF-beta kinase activity (ALK-5)): > 5 µM

SMILES: O=C(Cn1cc(-c2ccnc3ccccc23)c(-c2ccccn2)n1)NCc1cccc(Cl)c1 [Example 12, N-(3-chlorobenzyl)-2-(3-(pyridin-2-yl)-4-(quinolin-4-yl)-1H-pyrazol-1-yl)acetamide]
- IC50 (Human TGFβR-1 kinase; [5]): 0.1 to 0.8 µM

SMILES: CCc1cccc(-c2nn(CC(=O)NCc3ccccc3)cc2-c2ccnc3ccccc23)n1 [Example 18, N-benzyl-2-(3-(6-ethylpyridin-2-yl)-4-(quinolin-4-yl)-1H-pyrazol-1-yl)acetamide]
- IC50 (Human TGFβR-1 kinase; [5]): < 0.1 µM

SMILES: CCc1cccc(-c2nn(CC(=O)NCc3ccccc3C)cc2-c2ccnc3ccccc23)n1 [Example 19, 2-(3-(6-ethylpyridin-2-yl)-4-(quinolin-4-yl)-1H-pyrazol-1-yl)-N-(2-methylbenzyl)acetamide]
- IC50 (Human TGFβR-1 kinase; [5]): < 0.1 µM
- IC50 (TGF-beta kinase (ALK-5); [6]): 0.1 to 0.5 µM

SMILES: O=C(Cn1cc(-c2ccnc3ccccc23)c(-c2ccccn2)n1)NCc1ccc(Br)cc1 [Example 4, N-(4-bromobenzyl)-2-(3-(pyridin-2-yl)-4-(quinolin-4-yl)-1H-pyrazol-1-yl)acetamide]
- IC50 (Human TGFβR-1 kinase; [5]): 0.1 to 0.8 µM

SMILES: CCc1ccccc1CNC(=O)Cn1cc(-c2ccnc3ccccc23)c(-c2cccc(C)n2)n1 [Example 27, N-(2-ethylbenzyl)-2-(3-(6-methylpyridin-2-yl)-4-(quinolin-4-yl)-1H-pyrazol-1-yl)acetamide]
- IC50 (Human TGFβR-1 kinase; [5]): < 0.1 µM
- % remanent (sampling time 60 min) [3]: 0.31%
- microsomal CLint [3]: 600 µL/min/mg
- IC50 (TGF-beta kinase (ALK-5); [6]): < 0.1 µM
- % remanent (sampling time 60 min) [4]: 0.53%
- microsomal CLint [4]: 505 µL/min/mg
